Source: US20250332249A1, “CYTOM[…] CELL EPITOPES AND USES THEREOF” (LA JOLLA INSTITUTE FOR IMMUNOLOGY, priority 2021, published 2025)

Test system: PBMCs from HCMV seropositive subjects
Experiment: ex vivo IFN-γ Fluorospot assay
Format: cell-based, human
Settings: 19 HCMV seropositive subjects, individual peptide 10 ug/ml, 20 hr; for No. of subjects responding: IFN-γ; for Magnitude of response: IFN-γ spots (FIG. 1: SFC/10^6 PBMC; no unit in table)
Summary of the method: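 PBMC (200,000/well, triplicate) from HCMV-seropositive donors were stimulated for 20 h at 37 °C with 15-mer peptide pools (2 ug/ml) or single peptides (10 ug/ml). IFN-γ spots were counted by Fluorospot. Positivity required ≥20 SFC/10^6 PBMC over DMSO background, stimulation index >2 and p<0.05.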

| Substance | No. of subjects responding | Magnitude of response |
| --- | --- | --- |
| 190 (VVRFALYLETLSRIV) [compound 190] | 2 | 123 |
| 191 (FYMNWTLRRSQTHYL) [compound 191] | 6 | 16883 |
| 192 (QVEILKPRGVRHRAI) [compound 192] | 9 | 3468 |
| 193 (FCVYRYNARLTRGYV) [compound 193] | 3 | 700 |
| 194 (TRGYVRYTLSPKARL) [compound 194] | 7 | 9337 |
| 195 (SLDRFIVQYLNTLLI) [compound 195] | 8 | 23368 |
| 196 (PTWSTTVNAHNSFLH) [compound 196] | 1 | 47 |
| 197 (DRLSTLAATMCMFDY) [compound 197] | 1 | 53 |
| 198 (LFYRAVALGTLSALV) [compound 198] | 3 | 2633 |
| 199 (SSIFTSTHRGVIVAP) [compound 199] | 1 | 27 |
| 200 (LSVRYLSLTAYMLLA) [compound 200] | 1 | 1200 |
| 201 (TAYKAFLWKYAKKLN) [compound 201] | 1 | 503 |
| 202 (WKYAKKLNYHYFRLR) [compound 202] | 1 | 237 |
| 203 (VYLWYVRRQLVAFCL) [compound 203] | 3 | 253 |
| 204 (FPSARDIPKQLPEQP) [compound 204] | 1 | 27 |
| 205 (VVAYVILERLWLAAR) [compound 205] | 1 | 23 |
| 206 (IRRWWISVAIVIFIG) [compound 206] | 3 | 10480 |
| 207 (RWQFAVCAASKTATR) [compound 207] | 1 | 50 |
| 208 (PQRLLLTALAIWQRT) [compound 208] | 1 | 983 |
| 209 (PWWRRLRVKRPKFPS) [compound 209] | 1 | 240 |
| 210 (LWYLGDYGAILKIYF) [compound 210] | 1 | 40 |
| 211 (LFCGACVITRSLLLI) [compound 211] | 1 | 487 |
| 212 (MNLVMLILALWAPVA) [compound 212] | 1 | 553 |

| Substance | No. of subjects responding | Magnitude of response |
| --- | --- | --- |
| 214 (MLVVTVFDTTRLFEI) [compound 214] | 1 | 840 |
| 215 (VCAFCWLVLPHRLEQ) [compound 215] | 1 | 1960 |
| 216 (VSVLYFMPSEPGSAH) [compound 216] | 1 | 177 |
| 217 (VFQKTLSMLQGLYLR) [compound 217] | 2 | 327 |
| 218 (GLYLRQYDPPALRTY) [compound 218] | 2 | 633 |
| 219 (WFLVMREQAAIPQIY) [compound 219] | 4 | 1100 |
| 220 (QIYARSLAADYLCCD) [compound 220] | 1 | 33 |
| 221 (DFRDLLNFIRQRLCC) [compound 221] | 1 | 30 |
| 222 (PSQEILLLCARHLDE) [compound 222] | 3 | 110 |
| 223 (TDCWPFEVAPAARLA) [compound 223] | 2 | 1637 |
| 224 (LFRAGLMKVYVRRRY) [compound 224] | 1 | 870 |
| 225 (VVFMGRFSRVYAYDT) [compound 225] | 1 | 70 |
| 226 (EKYMVLVSHNLDELA) [compound 226] | 1 | 20 |
| 227 (PRLHCLVTTRSSTRE) [compound 227] | 1 | 1277 |
| 228 (LRYKWLIRKDRFIVR) [compound 228] | 1 | 3247 |
| 229 (TNIMLQVSNVTNHTL) [compound 229] | 1 | 58 |
| 230 (IVVGLPFFLEYAKHH) [compound 230] | 2 | 1250 |
| 231 (YNRMVRFIINYVGKW) [compound 231] | 1 | 23 |
| 232 (ITFCLYVGQFLAYVR) [compound 232] | 1 | 27 |
| 233 (HDPLGLTRFIMRQLM) [compound 233] | 1 | 473 |
| 234 (FIMRQLMMYPLVLPF) [compound 234] | 1 | 530 |
| 235 (GLVYRELHDFYGYLQ) [compound 235] | 1 | 963 |
